Experimental data published in the supplement of paper PMC11061612.

Tests used:
Assay in all cases: combination Emax (second highest fraction inhibited in the dose matrix, 72 h); higher = more inhibition; extreme values may be limits of the assay
[1] = test system: NCI-H2141 (Small Cell Lung Carcinoma)
Summary of the method: (§1)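 After 24 hours at 37°C and 5% CO2 in 1536-well plates, cells in DMEM/F12 or RPMI plus 10% FBS received two-drug dose matrices for 72 hours. Viability came from CellTiter-Glo 2.0 luminescence and was scaled as inhibition, anchored at 0 by vehicle wells and at 1 by blank wells. Combination Emax is taken as the second-highest inhibition in the matrix, and Bliss excess as the observed combination effect less EA + EB − EA·EB, with EA and EB the single-agent effects.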

NY (Osteosarcoma) = test system: NY (Osteosarcoma)
Summary of the method: as §1

NCI-H2591 (Mesothelioma) = test system: NCI-H2591 (Mesothelioma)
Summary of the method: as §1

[2] = test system: JSC-1 (B-Cell Non-Hodgkin's Lymphoma)
Summary of the method: as §1

[3] = test system: SK-MES-1 (Squamous Cell Lung Carcinoma)
Summary of the method: as §1

[4] = test system: SK-MG-1 (Low Grade Glioma)
Summary of the method: as §1

[5] = test system: A549 (Lung Adenocarcinoma)
Summary of the method: as §1

[6] = test system: NCI-H1650 (Lung Adenocarcinoma)
Summary of the method: as §1

[7] = test system: ECC10 (Gastric Carcinoma)
Summary of the method: as §1

[8] = test system: ONS-76 (Other Solid Carcinomas)
Summary of the method: as §1

ARH-77 (Non-Cancerous) = test system: ARH-77 (Non-Cancerous)
Summary of the method: as §1

GI-ME-N (Neuroblastoma) = test system: GI-ME-N (Neuroblastoma)
Summary of the method: as §1

[9] = test system: PANC-10-05 (Pancreatic Carcinoma)
Summary of the method: as §1

8-MG-BA (Glioblastoma) = test system: 8-MG-BA (Glioblastoma)
Summary of the method: as §1

[10] = test system: OS-RC-2 (Kidney Carcinoma)
Summary of the method: as §1

[11] = test system: TT2609-C02 (Thyroid Gland Carcinoma)
Summary of the method: as §1

[12] = test system: BICR22 (Oral Cavity Carcinoma)
Summary of the method: as §1

[13] = test system: NCI-H64 (Small Cell Lung Carcinoma)
Summary of the method: as §1

U-2-OS (Osteosarcoma) = test system: U-2-OS (Osteosarcoma)
Summary of the method: as §1

[14] = test system: NCI-H1666 (Lung Adenocarcinoma)
Summary of the method: as §1

Row | Structure (SMILES) | combination Emax [1] | combination Emax (NY (Osteosarcoma)) | combination Emax (NCI-H2591 (Mesothelioma)) | combination Emax [2] | combination Emax [3] | combination Emax [4] | combination Emax [5] | combination Emax [6] | combination Emax [7] | combination Emax [8] | combination Emax (ARH-77 (Non-Cancerous)) | combination Emax (GI-ME-N (Neuroblastoma)) | combination Emax [9] | combination Emax (8-MG-BA (Glioblastoma)) | combination Emax [10] | combination Emax [11] | combination Emax [12] | combination Emax [13] | combination Emax (U-2-OS (Osteosarcoma)) | combination Emax [14]
1 | Cc1c2c(nn1C)CSCc1cc(n(C)n1)CSc1cc(c3ccccc3c1)OCCCc1c(C(=O)O)n(C)c3c-2c(Cl)ccc13 [AZD5991] + CCN(CCO)CCCOc1ccc2c(Nc3cc(CC(=O)Nc4cccc(F)c4)[nH]n3)ncnc2c1 [AZD2811] (first compound max 1 µM, 7x7, partner max 1 µM) | 0.428 | 0.48 | 0.265 | 1 | 0.408 | 0.465 | 0.41 | 0.269 | 0.957 | 0.386 | 0.904 | 0.354 | 0.303 | 0.836 | 0.21 | 0.456 | 0.675 | 0.788 | 0.307 | 0.334
2 | CN(C)CCCOc1ccc(-c2ccc3ncc4c(c3c2)n(C2CCOCC2)c(=O)n4C)cn1 [AZD0156] + CCN(CCO)CCCOc1ccc2c(Nc3cc(CC(=O)Nc4cccc(F)c4)[nH]n3)ncnc2c1 [AZD2811] (first compound max 1 µM, 7x7, partner max 1 µM) | 0.289 | 0.0423 | 0.112 | 0.19 | 0.204 | 0.388 | 0.595 | 0.101 | 0.856 | 0.293 | 0.492 | 0.0704 | 0.218 | 0.215 | 0.11 | 0.258 | 0.375 | 0.461 | 0.152 | 0.211
3 | Cc1cc2ncnn2cc1Nc1ncc2c(n1)n(C1CCOCC1)c(=O)n2C [AZD7648] + C=CCn1c(=O)c2cnc(Nc3ccc(N4CCN(C)CC4)cc3)nc2n1-c1cccc(C(C)(C)O)n1 [AZD1775] (first compound max 10 µM, partner max 1 µM) | 0.647 | 0.548 | 0.368 | 0.931 | 0.711 | 0.594 | 0.578 | 0.417 | 0.797 | 0.589 | 0.969 | 0.393 | 0.49 | 0.648 | 0.419 | 0.304 | 0.643 | 0.89 | 0.614 | 0.357
4 | Cc1cc2ncnn2cc1Nc1ncc2c(n1)n(C1CCOCC1)c(=O)n2C [AZD7648] + CN(C)CCCOc1ccc(-c2ccc3ncc4c(c3c2)n(C2CCOCC2)c(=O)n4C)cn1 [AZD0156] (first compound max 10 µM, 7x7, partner max 1 µM) | 0.229 | 0.286 | 0.334 | 0.303 | 0.28 | 0.359 | 0.468 | 0.25 | 0.323 | 0.26 | 0.54 | 0.157 | 0.483 | 0.31 | 0.261 | 0.0937 | 0.384 | 0.279 | 0.176 | 0.431
5 | CN(CCO)CC[C@H](CSc1ccccc1)Nc1ccc(S(=O)(=O)NC(=O)c2ccc(N3CCC([C@@H](O)c4ccccc4-c4ccc(Cl)cc4)CC3)cc2)cc1S(=O)(=O)C(F)(F)F [AZD4320] + C[C@@H](Nc1cc(F)cc(F)c1)c1cc(C(=O)N(C)C)cc2c(=O)cc(N3CCOCC3)oc12 [AZD8186] (first compound max 1 µM, 7x7, partner max 3 µM) | 0.886 | 0.589 | 0.214 | 0.546 | 0.434 | 0.652 | 0.401 | 0.402 | 1 | 0.338 | 0.899 | 0.469 | 0.383 | 0.316 | 0.581 | 0.294 | 0.838 | 0.967 | 0.382 | 0.42
6 | Cc1cc2ncnn2cc1Nc1ncc2c(n1)n(C1CCOCC1)c(=O)n2C [AZD7648] + C[C@@H]1COCCN1C2=NC(=NC(=C2)C3(CC3)[S@](=N)(=O)C)C4=C5C=CNC5=NC=C4 [AZD6738] (first compound max 10 µM, 7x7, partner max 10 µM) | 0.578 | 0.527 | 0.39 | 0.896 | 0.72 | 0.584 | 0.786 | 0.324 | 0.421 | 0.825 | 0.89 | 0.59 | 0.49 | 0.769 | 0.419 | 0.191 | 0.761 | 0.811 | 0.675 | 0.354
7 | COc1nnc2ccc(N3CCC(c4ccc(OCCN5CCN(C)C(=O)[C@H]5C)cc4)CC3)nn12 [AZD5153] + C=CCn1c(=O)c2cnc(Nc3ccc(N4CCN(C)CC4)cc3)nc2n1-c1cccc(C(C)(C)O)n1 [AZD1775] (first compound max 1 µM, partner max 1 µM) | 0.659 | 0.567 | 0.448 | 0.901 | 0.743 | 0.618 | 0.885 | 0.477 | 0.901 | 0.601 | 0.968 | 0.393 | 0.597 | 0.801 | 0.486 | 0.622 | 0.489 | 0.884 | 0.635 | 0.413
8 | CC(=O)c1c(C)c2cnc(Nc3ccc(N4CCNCC4)cn3)nc2n(C2CCCC2)c1=O [Palbociclib] + Cn1cnc2c(F)c(Nc3ccc(Br)cc3Cl)c(C(=O)NOCCO)cc21 [Selumetinib] (first compound max 10 µM, 7x7, partner max 10 µM) | 0.139 | 0.194 | 0.288 | 0.633 | 0.645 | 0.344 | 0.764 | 0.15 | 0.539 | 0.734 | 0.61 | 0.245 | 0.521 | 0.321 | 0.235 | 0.527 | 0.477 | 0.19 | 0.601 | 0.49
9 | NC1(C(=O)N[C@@H](CCO)c2ccc(Cl)cc2)CCN(c2ncnc3[nH]ccc23)CC1 [Capivasertib] + C[C@@H]1COCCN1C2=NC(=NC(=C2)C3(CC3)[S@](=N)(=O)C)C4=C5C=CNC5=NC=C4 [AZD6738] (first compound max 10 µM, 7x7, partner max 10 µM) | 0.557 | 0.645 | 0.482 | 0.95 | 0.855 | 0.668 | 0.848 | 0.541 | 0.498 | 0.852 | 0.927 | 0.411 | 0.519 | 0.873 | 0.481 | 0.364 | 0.812 | 0.861 | 0.535 | 0.44
10 | CN(CCO)CC[C@H](CSc1ccccc1)Nc1ccc(S(=O)(=O)NC(=O)c2ccc(N3CCC([C@@H](O)c4ccccc4-c4ccc(Cl)cc4)CC3)cc2)cc1S(=O)(=O)C(F)(F)F [AZD4320] + C1CN(CCC1(C(=O)N[C@@H](CCO)C2=CC=C(C=C2)Cl)N)C3=NC=NC4=C3C=CN4 [Capivasertib] (first compound max 1 µM, 7x7, partner max 3 µM) | 0.829 | 0.0978 | 0.101 | 0.124 | 0.104 | 0.413 | 0.354 | 0.143 | 1 | 0.221 | 0.841 | 0.153 | 0.265 | 0.291 | 0.337 | 0.0697 | 0.684 | 0.95 | 0.225 | 0.201
11 | CC(=O)c1c(C)c2cnc(Nc3ccc(N4CCNCC4)cn3)nc2n(C2CCCC2)c1=O [Palbociclib] + Cc1c2c(nn1C)CSCc1cc(n(C)n1)CSc1cc(c3ccccc3c1)OCCCc1c(C(=O)O)n(C)c3c-2c(Cl)ccc13 [AZD5991] (first compound max 10 µM, 7x7, partner max 1 µM) | 0.309 | 0.534 | 0.279 | 1 | 0.266 | 0.3 | 0.64 | 0.195 | 0.911 | 0.357 | 0.556 | 0.332 | 0.329 | 0.63 | 0.232 | 0.275 | 0.176 | 0.213 | 0.274 | 0.236
12 | C[C@@H]1COCCN1c1cc(C2([S@](C)(=N)=O)CC2)nc(-c2ccnc3[nH]ccc23)n1 [AZD6738] + O=C(c1cc(Cc2n[nH]c(=O)c3ccccc23)ccc1F)N1CCN(C(=O)C2CC2)CC1 [Olaparib] (first compound max 10 µM, 7x7, partner max 10 µM) | 0.51 | 0.607 | 0.348 | 0.822 | 0.696 | 0.552 | 0.809 | 0.349 | 0.54 | 0.894 | 0.911 | 0.486 | 0.486 | 0.85 | 0.435 | 0.316 | 0.711 | 0.692 | 0.723 | 0.331
13 | COc1cccc(OCCCN)c1-c1cc(Nc2cnc(C#N)cn2)n[nH]1 [Prexasertib] + O=C(c1cc(Cc2n[nH]c(=O)c3ccccc23)ccc1F)N1CCN(C(=O)C2CC2)CC1 [Olaparib] (first compound max 1 µM, 7x7, partner max 10 µM) | 0.617 | 0.652 | 0.21 | 0.996 | 0.834 | 0.904 | 0.614 | 0.494 | 0.728 | 0.793 | 0.969 | 0.452 | 0.31 | 0.969 | 0.475 | 0.329 | 0.78 | 0.835 | 0.908 | 0.26
